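Assay format: 96-well plates, 48-hour exposure. At the GI50, growth is halved. TGI is the concentration that stops growth completely.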 Where a SMILES comes first, the peptide text is derived from it. The star is where a group is joined. Palmitoyl = CCCCCCCCCCCCCCCC(=O)*
Key:
Experiment in all cases: NCI anticancer screen, dose series, 48 h
[1] = test system: XF 498 CNS
[2] = test system: M19-MEL melanoma
[3] = test system: ACHN renal
[4] = test system: RXF 393 renal
[5] = test system: UO-31 renal
[6] = test system: HS 578T breast
[7] = test system: BT-549 breast
[8] = test system: DMS 273 small cell lung
[9] = test system: SNB-78 CNS
[10] = test system: LXFL 529 NSCLC
[11] = test system: 786-0 renal
[12] = test system: UACC-257 melanoma
[13] = test system: TK-10 renal

Structure (SMILES)	TGI [1]	TGI [2]	TGI [3]	TGI [4]	TGI [5]	TGI [6]	TGI [7]	TGI [8]	TGI [9]	TGI [10]	TGI [11]	TGI [12]	TGI [13]	GI50 [7]	GI50 [12]	GI50 [4]	GI50 [5]	GI50 [6]	GI50 [13]	GI50 [3]
CC12C=CC(=O)C=C1CCC1C3CCC(O)(C(=O)CO)C3(C)CC(O)C12F (centres undefined)	> 100 µM	> 100 µM	> 100 µM	> 100 µM	> 100 µM	> 100 µM	> 100 µM	> 100 µM	> 100 µM	> 100 µM	> 100 µM	> 100 µM	> 100 µM	–	–	–	–	–	–	–
CON(C)c1nc(N(C)OC)nc(N(C)OC)n1	–	–	> 10 µM	> 10 µM	> 10 µM	> 10 µM	–	–	–	–	–	–	> 10 µM	–	–	–	–	–	–	–
Nc1nc(O)c2ncn([C@H]3CC[C@@H](CO)O3)c2n1	–	–	–	> 100 µM	> 100 µM	> 100 µM	> 100 µM	–	–	–	–	> 100 µM	> 100 µM	–	–	–	–	–	–	–
CN1C(c2ccccc2)CC(=O)C(N)C1c1ccccc1 (centres undefined)	28.1 µM	55.5 µM	> 100 µM	> 31.6 µM	> 96.3 µM	–	–	> 61.7 µM	69.7 µM	37.5 µM	97.7 µM	> 87.1 µM	> 100 µM	–	–	–	–	–	–	–
Cn1c(-c2ccccc2)cc(-c2cccs2)c1-c1cccs1	> 100 µM	> 100 µM	–	> 100 µM	> 100 µM	–	–	> 100 µM	> 100 µM	–	–	> 51 µM	–	–	–	–	–	–	–	–
Cc1cc(C)nc(NS(=O)(=O)c2ccc(NC(=O)c3cccc4c(Nc5ccc(S(=O)(=O)Nc6cc(C)on6)cc5)c5ccccc5nc34)cc2)n1	47.6 µM	62.4 µM	> 100 µM	39.6 µM	> 100 µM	–	–	–	> 100 µM	35.5 µM	–	47.2 µM	> 100 µM	–	–	–	–	–	–	–
CCN1CCC(O)(/C=C/c2ccccc2C)C(C(=O)/C=C/c2ccccc2C)C1 (centres undefined)	–	–	–	3.67 µM	3 µM	16.2 µM	6.44 µM	–	–	–	–	9.31 µM	10.1 µM	–	–	–	–	–	–	–
COC(=O)C1=C(OC(=O)/C(=C/c2ccc(Cl)cc2)c2ccc(Cl)cc2)C(C(=O)OC)[C@]2(O)[C@@H](C(=O)OC)[C@H]1C[C@@H](c1ccccc1)[C@@H]2C(=O)OC (some centres undefined)	–	–	> 100 µM	> 100 µM	–	–	> 100 µM	–	–	–	–	> 100 µM	> 100 µM	–	–	–	–	–	–	–
O[C@@]12Cc3c([nH]c4ccccc34)[C@@H]3Oc4cccc5c4[C@@]31CCN(CC1CC1)[C@@H]2C5	–	–	34.8 µM	–	32.9 µM	–	35.3 µM	–	–	–	–	42 µM	33.7 µM	–	–	–	–	–	–	–
C/C(=N/N=C(\[O-])c1ccncc1)C(F)(F)F.C/C(=N\N=C(/[O-])c1ccncc1)C(F)(F)F.[Ni+2]	–	–	–	–	–	–	> 1 µM	–	–	–	–	> 1 µM	–	> 1 µM	> 1 µM	–	–	–	–	–
CCCCCCCCCCCCCCCC(=O)N1CCCC1C(=O)NCC(=O)NC(Cc1ccccc1)C(=O)NC(C)C(=O)NC(CO)C(=O)NC(Cc1ccc(O)cc1)C(=O)NC(CCCCN)C(=O)NC(CC(C)C)C(=O)NC(CCCN=C(N)N)C(=O)N1CCCC1C(=O)NCC(N)=O (centres undefined) (Palmitoyl-PGFASYKLRPG-NH2; configuration not given here)	–	–	–	53.5 µM	52.1 µM	> 100 µM	45.3 µM	–	–	–	–	52.7 µM	41.5 µM	21.9 µM	26.4 µM	24.7 µM	21.9 µM	39.7 µM	18.4 µM	–
C=C(C)C1Cc2c(c3ccccc3n(C)c2=O)O1 (centres undefined)	–	> 100 µM	> 100 µM	–	> 100 µM	–	–	–	> 100 µM	> 100 µM	–	–	> 100 µM	–	–	–	–	–	–	–
c1ccc(-c2nc(N3CCNCC3)c3oc(-c4ccccc4)nc3n2)cc1	–	–	3 µM	3.07 µM	2.85 µM	4.07 µM	–	–	–	–	–	–	–	–	–	1.54 µM	1.49 µM	1.88 µM	–	1.64 µM
CC(C)C(C(=O)O)N1C(=O)c2ccccc2C1=O (centres undefined)	–	–	> 100 µM	> 100 µM	–	> 100 µM	> 100 µM	–	–	–	> 100 µM	> 100 µM	> 100 µM	–	–	–	–	–	–	–
